Measurements from PMC10964573, “OCTN2- and ATB^0,+-targeted nanoemulsions for improving ocular drug delivery” (Journal of Nanobiotechnology, 2024).
Entries after “also recorded” stand apart in the source; their conditions may differ.

Assay: Solubility of DEX in oils (shake flask)
Assay type: physicochemical
Conditions: Labrafil M1944 CS versus medium-chain triglycerides, soybean oil, olive oil; 37 °C, 72 h
Procedure: The solubility of drug in oils is the basis for the selection of the oil phase. The solubility of DEX in various oils, including medium-chain triglycerides, soybean oil, olive oil, and Labrafil® M1944 CS was determined by the shake flask method. Briefly, an excessive amount of DEX was added to 1mL of oil in an Eppendorf tube and mixed in a water bath sonication. Then the tubes were placed in a water bath shaker at 37 ± 0.5 °C. After shaking for 72 h, the samples were centrifuged at 10,000 rpm for 10 min. The supernatant was extracted with ethanol solution by sonicating for 20 min and centrifuging at 10,000 rpm for 10 min. The DEX concentration in the supernatant was determined by high-performance liquid chromatography. […] Next, the effect of the amount of Labrafil® M1944 CS content on the physicochemical properties of the DEX NEs was screened (Table S1). When the amount of Labrifil® M 1944 CS was 50 mg, DEX NEs had higher drug content (0.64±0.003mg/mL) and EE (91.3±2.8%), and this formulation was selected to further prepare DEX SC-NEs.

solubility in oil: high solubility; also recorded: highest
Structure (SMILES): C[C@@H]1C[C@H]2[C@@H]3CCC4=CC(=O)C=C[C@]4(C)[C@@]3(F)[C@@H](O)C[C@]2(C)[C@@]1(O)C(=O)CO [DEX, Dexamethasone]
